Source: patent US5430062A, “Stilbene derivatives as anticancer agents” (priority 1993, dated 1995)
Several values for one entry are separate records, joined by “and”; a condition that tells them apart may be missing. Equal values may be shown once.

Tested on: HL-60 (TB) leukemia
Assay: Cytotoxicity, HL-60(TB) leukemia
Conditions: Hydrochloride

COc1cc(CNc2ccc(C)cc2)cc(OC)c1OC.Cl [110a, 4-Methyl-N-(3,4,5-trimethoxybenzyl)aniline Hydrochloride]
Log10 GI50, HL-60 (TB): < -7.00 and -7.05
